From ChEMBL document CHEMBL1201862, “PubChem BioAssay data set” (2004)
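The compound was tested at five concentrations on cells cultured in 96-well plates, with a 48-hour exposure period. Here, GI50 denotes the concentration required for 50% inhibition of growth.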 The source made the active and inactive calls. Rule as the data show it: active = GI50 up to about 1.1 µM and inactive = higher.

Assays:
Test in all cases: NCI tumour cell line growth inhibition, 48 h
MDA-MB-231 = test system: MDA-MB-231
MDA-N = test system: MDA-N
Malme-3M = test system: Malme-3M
UACC-257 = test system: UACC-257
U-251 = test system: U-251
NCI-H226 = test system: NCI-H226
SF-295 = test system: SF-295
CAKI-1 = test system: CAKI-1
Hs-578T = test system: Hs-578T
NCI-H522 = test system: NCI-H522
ACHN = test system: ACHN
MDA-MB-435 = test system: MDA-MB-435
PC-3 = test system: PC-3
SN12C = test system: SN12C
K562 = test system: K562
COLO 205 = test system: COLO 205
786-0 = test system: 786-0
IGROV-1 = test system: IGROV-1
SF-539 = test system: SF-539
HOP-92 = test system: HOP-92

Measured: GI50

O=C1NC(=S)N/C1=C\c1cc2c(=O)c3ccccc3sc2s1
inactive: MDA-MB-231 > 100 µM | MDA-N 87.7 µM | Malme-3M > 100 µM | UACC-257 > 100 µM | U-251 30.7 µM | NCI-H226 > 100 µM | SF-295 70.5 µM | CAKI-1 > 100 µM | Hs-578T 64.6 µM | NCI-H522 71 µM | ACHN 60.8 µM | MDA-MB-435 > 100 µM | PC-3 72.1 µM | SN12C > 100 µM | K562 29.9 µM | COLO 205 47.4 µM | 786-0 40.2 µM | IGROV-1 40.7 µM

O/N=C1\SC(=N\O)/C(=N/O)S\C1=N/O
inactive: MDA-MB-231 > 100 µM | SF-539 > 100 µM | MDA-N 73.8 µM | Malme-3M > 100 µM | HOP-92 > 100 µM | UACC-257 > 100 µM | U-251 > 100 µM | NCI-H226 > 100 µM | SF-295 > 100 µM | CAKI-1 > 100 µM | NCI-H522 16.2 µM | ACHN > 100 µM | MDA-MB-435 > 100 µM | PC-3 > 100 µM | SN12C > 100 µM | K562 51.2 µM | COLO 205 > 100 µM | 786-0 > 100 µM | IGROV-1 > 100 µM

C(=N\CCCN1CCN(CCC/N=C/c2cccc3ccccc23)CC1)/c1cccc2ccccc12
inactive: MDA-MB-231 > 100 µM | SF-539 > 100 µM | MDA-N 20 µM | Malme-3M > 100 µM | UACC-257 > 100 µM | U-251 36.2 µM | NCI-H226 48.6 µM | SF-295 57.9 µM | CAKI-1 > 100 µM | Hs-578T 18.8 µM | NCI-H522 > 100 µM | ACHN > 100 µM | MDA-MB-435 14.5 µM | PC-3 > 100 µM | SN12C > 100 µM | K562 26.4 µM | COLO 205 > 100 µM | 786-0 > 100 µM | IGROV-1 > 100 µM

COC(=O)CNC(=O)CSc1nnc(COc2ccc(Cl)cc2)n1-c1ccccc1
inactive: MDA-MB-231 20.5 µM | SF-539 > 100 µM | MDA-N 19.2 µM | Malme-3M 41.3 µM | HOP-92 31.8 µM | UACC-257 29.9 µM | U-251 38.6 µM | NCI-H226 47.4 µM | SF-295 > 100 µM | CAKI-1 16.9 µM | NCI-H522 15.3 µM | ACHN 24 µM | MDA-MB-435 20.8 µM | PC-3 24 µM | SN12C 19.8 µM | K562 > 100 µM | COLO 205 > 100 µM | 786-0 16.1 µM | IGROV-1 21 µM

CN(C(=O)CC(=O)CP(=O)(c1ccccc1)c1ccccc1)c1ccccc1
inactive: MDA-MB-231 > 100 µM | SF-539 > 100 µM | MDA-N > 100 µM | UACC-257 > 100 µM | U-251 > 100 µM | NCI-H226 > 100 µM | SF-295 > 100 µM | CAKI-1 > 100 µM | Hs-578T > 100 µM | NCI-H522 > 100 µM | ACHN > 100 µM | MDA-MB-435 > 100 µM | PC-3 > 100 µM | SN12C > 100 µM | K562 > 100 µM | COLO 205 > 100 µM | 786-0 > 100 µM | IGROV-1 > 100 µM

CCOC(=O)n1[nH]c(=O)n(-c2ccccc2)c1=O
inactive: MDA-MB-231 > 100 µM | MDA-N > 100 µM | Malme-3M > 100 µM | UACC-257 > 100 µM | U-251 > 100 µM | NCI-H226 > 100 µM | SF-295 > 100 µM | CAKI-1 > 100 µM | Hs-578T > 100 µM | ACHN > 100 µM | MDA-MB-435 > 100 µM | PC-3 > 100 µM | SN12C > 100 µM | K562 > 100 µM | COLO 205 > 100 µM | 786-0 > 100 µM | IGROV-1 > 100 µM

CC(=O)O[C@H]1CC[C@@]2(C)C(=CC[C@H]3[C@@H]4C/C(=C\c5ccc(N(C)C)cc5)[C@H](OC(C)=O)[C@@]4(C)CC[C@@H]32)C1
inactive: MDA-MB-231 12.5 µM | SF-539 10.7 µM | MDA-N 13.5 µM | Malme-3M 12.6 µM | UACC-257 6.14 µM | U-251 6.71 µM | NCI-H226 12.1 µM | SF-295 4.12 µM | Hs-578T 3.72 µM | ACHN 8.71 µM | PC-3 4.41 µM | SN12C 14.7 µM | K562 6.59 µM | COLO 205 4.54 µM | 786-0 4.36 µM | IGROV-1 13.8 µM

O=c1c(Sc2c(SCSc3cnc4ccccc4c3Sc3c[nH]c4ccccc4c3=O)cnc3ccccc23)c[nH]c2ccccc12
inactive: MDA-MB-231 34.9 µM | SF-539 > 100 µM | MDA-N > 100 µM | HOP-92 34 µM | UACC-257 > 100 µM | U-251 25.5 µM | SF-295 > 100 µM | CAKI-1 > 100 µM | Hs-578T 62.8 µM | NCI-H522 > 100 µM | ACHN > 100 µM | MDA-MB-435 31.1 µM | PC-3 > 10 µM | SN12C > 100 µM | COLO 205 > 100 µM | 786-0 > 100 µM | IGROV-1 88.9 µM

CCOc1ccccc1N1CSc2nnc(-c3ccccc3)n2C1
inactive: MDA-MB-231 > 100 µM | SF-539 > 100 µM | MDA-N > 100 µM | Malme-3M > 100 µM | HOP-92 > 100 µM | UACC-257 > 100 µM | U-251 > 100 µM | NCI-H226 > 100 µM | SF-295 > 100 µM | CAKI-1 > 100 µM | NCI-H522 > 100 µM | ACHN > 100 µM | MDA-MB-435 > 100 µM | PC-3 > 100 µM | SN12C > 100 µM | K562 > 100 µM | COLO 205 68.1 µM | 786-0 > 100 µM | IGROV-1 > 100 µM

CC(=O)NCCCCNCCCNC(C)=O
inactive: MDA-MB-231 > 100 µM | SF-539 > 100 µM | MDA-N > 100 µM | Malme-3M > 100 µM | HOP-92 > 100 µM | UACC-257 > 100 µM | U-251 > 100 µM | NCI-H226 > 100 µM | SF-295 > 100 µM | CAKI-1 > 100 µM | Hs-578T > 100 µM | NCI-H522 > 100 µM | ACHN > 100 µM | MDA-MB-435 > 100 µM | SN12C > 100 µM | K562 > 100 µM | COLO 205 > 100 µM | 786-0 > 100 µM | IGROV-1 > 100 µM

CC(=O)Nc1ccccc1NC1CC(C)N(c2ccccc2)N1C(C)=O (stereo not given)
inactive: MDA-MB-231 > 10 µM | MDA-N > 10 µM | Malme-3M > 10 µM | HOP-92 > 10 µM | UACC-257 > 10 µM | SF-295 > 10 µM | CAKI-1 > 10 µM | MDA-MB-435 > 10 µM | PC-3 > 10 µM | SN12C > 10 µM | K562 > 10 µM | COLO 205 > 10 µM | 786-0 > 10 µM | IGROV-1 > 10 µM

O=C(CN1CCCC1)Nc1ccc2sc3ccccc3c(=O)c2n1
inactive: MDA-MB-231 26.4 µM | SF-539 17.1 µM | MDA-N 20.8 µM | HOP-92 27.3 µM | UACC-257 > 10 µM | U-251 18.7 µM | SF-295 22.6 µM | CAKI-1 18 µM | Hs-578T 21.2 µM | NCI-H522 11.2 µM | ACHN 12.5 µM | MDA-MB-435 14.7 µM | PC-3 14.7 µM | SN12C 16.4 µM | K562 6.82 µM | COLO 205 14 µM | 786-0 14.9 µM | IGROV-1 23.2 µM

CN1CC2CC(C1)c1cccc(=O)n1C2 (stereo not given)
inactive: MDA-MB-231 > 100 µM | MDA-N > 100 µM | Malme-3M > 100 µM | HOP-92 > 100 µM | UACC-257 > 100 µM | U-251 > 100 µM | SF-295 > 100 µM | CAKI-1 > 100 µM | Hs-578T > 100 µM | NCI-H522 > 100 µM | ACHN > 100 µM | MDA-MB-435 > 100 µM | PC-3 > 100 µM | SN12C > 100 µM | COLO 205 > 100 µM | 786-0 > 100 µM | IGROV-1 > 100 µM

COc1c(CC=C(C)C)c(O)c(C(CC(C)C)c2c(O)c(C(C)=O)c(O)c3c2OC(C(C)(C)O)C3)c(O)c1C(C)=O (stereo not given) [ACROFOLIONE A]
inactive: SF-539 4.93 µM | MDA-N 4.29 µM | Malme-3M 3.81 µM | HOP-92 1.85 µM | UACC-257 3.2 µM | NCI-H226 5.69 µM | CAKI-1 3.59 µM | Hs-578T 7.74 µM | NCI-H522 3.39 µM | ACHN 4.31 µM | MDA-MB-435 4.86 µM | SN12C 3.84 µM | K562 2.13 µM | COLO 205 4.46 µM | 786-0 4.89 µM | IGROV-1 3.65 µM

O=C1CSC(=S)N1 [RHODANINE]
inactive: MDA-MB-231 > 100 µM | SF-539 > 100 µM | MDA-N > 100 µM | Malme-3M > 100 µM | HOP-92 > 100 µM | UACC-257 > 100 µM | U-251 > 100 µM | NCI-H226 > 100 µM | SF-295 > 100 µM | CAKI-1 > 100 µM | Hs-578T > 100 µM | NCI-H522 > 100 µM | ACHN > 100 µM | PC-3 > 100 µM | SN12C > 100 µM | K562 > 100 µM | COLO 205 > 100 µM | 786-0 > 100 µM | IGROV-1 > 100 µM
